From patent publication US20220378756A1, “ACTIVATING PYRUVATE KINASE R” (FORMA Therapeutics, Inc., priority 2019, published 2022)

System: 2,3-DPG, ATP and p50 in blood
Assay: Phase 1 SAD/MAD, healthy volunteers: pharmacodynamics
Type: in vivo, human
Settings: for Median Percentage Change in 2,3-DPG Levels: HV
Description: This is a first-in-human (FIH), Phase 1 study of Compound 1 that will characterize the safety, PK, and PD of Compound 1 after a single dose and after repeated dosing first in healthy adult volunteers and then in adolescents or adults with sickle cell disease. Initially, a dose range of Compound 1 in single ascending dose (SAD) escalation cohorts will be explored in healthy subjects. Enrollment of healthy subjects into 2-week multiple ascending dose (MAD) escalation cohorts will be initiated once the safety and PK from at least two SAD cohorts is available to inform the doses for the 2-week MAD portion of the study. The MAD cohorts will then run in parallel to the single dose cohorts. A single dose cohort is planned to understand food effects (FE) on the PK of Compound 1. […] Multiple dose studies in SCD subjects will then be initiated upon completion of MAD studies in healthy volunteers. Compound 1 will be administered in 25 mg and 100 mg tablets delivered orally.
In this study, SAD/MAD cohorts are randomized (3 to 1) to receive Compound 1 or placebo (P). Compound 1 was evaluated first in 4 healthy SAD cohorts and 4 healthy MAD (14-day dosing period) cohorts. Based on the safety, and PK/PD profile from HS, Compound 1 is then evaluated in 1 SCD SAD cohort and 2 SCD MAD cohorts. Specifically, based on the safety and pharmacokinetic/pharmacodynamics (PK/PD) profile in healthy volunteer studies, Compound 1 is evaluated in patients (pts) with SCD, first in a single dose (SD or SAD) cohort and then in multiple-dose (MD or MAD) cohorts (14-day and 12-week). Safety assessments include AEs, vital signs, ECGs and laboratory parameters. PK/PD blood sampling was performed on Day 1 (SAD/MAD) and Day 14 (MAD) and up to 72 h after the last dose and at the end-of-study visit. PD parameters included 2,3-DPG, ATP, and p50 in all cohorts with additional PD studies (including oxygen scan) performed only in the SCD cohorts. PD parameters included 2,3-DPG, ATP, p50, RBC deformability with controlled deoxygenation and reoxygenation (Lorrca® oxygen scan) and varying osmolality (Lorrca® osmoscan)). To maintain study blind, pt identifiers were removed when needed.
Four healthy SAD cohorts were evaluated at doses of 200, 400, 700, and 1000 mg, and four healthy MAD cohorts received 200 to 600 mg total daily doses for 14 days at QD or BID dosing (100 mg BID, 200 mg BID, 300 mg BID, and 400 mg QD). In the food effect (FE) cohort, 10 healthy subjects received 200 mg of Compound 1 QD with and without food.
In the SAD cohorts, the subjects' blood 2,3-DPG levels were measured periodically after dosing by a qualified LC-MS/MS method for the quantitation of 2,3-DPG in blood. Decreased 2,3-DPG blood levels were observed 6 hours following a single dose of Compound 1 at all dose levels (earlier timepoints were not collected). Maximum decreases in 2,3-DPG levels generally occurred ˜24 hours after the first dose with the reduction sustained ˜48-72 hr postdose. Table 16 reports the median percentage change in 2,3-DPG blood levels, relative to baseline, measured over time in healthy volunteers after a single dose of Compound 1 (200 mg, 400 mg, 700 mg, or 1000 mg) or placebo. Accordingly, the median reduction in the concentration of 2,3-DPG, relative to baseline, was at least about […] at all dose levels tested 24 hours after administration of the single dose.
In the MAD cohorts, the subjects' blood 2,3-DPG levels were measured periodically after dosing by a qualified LC-MS/MS method for the quantitation of 2,3-DPG in blood. The maximum decrease in 2,3-DPG on Day 14 was 55% from baseline (median). […] Table 18 reports the median percentage change in 2,3-DPG blood levels, relative to baseline, measured over time after the first dose on days 1 and 14 in healthy volunteers who received daily doses of Compound 1 (100 mg BID, 200 mg BID, or 300 mg BID) or placebo for 14 days. […]

[1] = MAD, N = 36, all doses and timepoints
[2] = SAD, N = 24, all doses and timepoints

O=C([C@H](CO)c1ccccc1)N1CC2=C(C1)CN(S(=O)(=O)c1cnc3c(c1)OCCO3)C2 (single isomer, unassigned) [Compound 1]
Median Percentage Change in 2,3-DPG Levels (300 mg BID, Day 1, 16 h after first daily dose): −40.7%
Median Percentage Change in 2,3-DPG Levels (300 mg BID, Day 1, 24 h after first daily dose): −50.8%
Median Percentage Change in 2,3-DPG Levels (300 mg BID, Day 14, 0 h after first daily dose): −59.4%
Median Percentage Change in 2,3-DPG Levels (300 mg BID, Day 14, 6 h after first daily dose): −53.0%
Median Percentage Change in 2,3-DPG Levels (300 mg BID, Day 14, 8 h after first daily dose): −54.2%
Median Percentage Change in 2,3-DPG Levels (300 mg BID, Day 14, 12 h after first daily dose): −55.3%
Median Percentage Change in 2,3-DPG Levels (300 mg BID, Day 14, 16 h after first daily dose): −52.4%
Median Percentage Change in 2,3-DPG Levels (300 mg BID, Day 14, 24 h after first daily dose): −52.1%
Median Percentage Change in 2,3-DPG Levels (300 mg BID, Day 14, 48 h after first daily dose): −44.5%
Median Percentage Change in 2,3-DPG Levels (300 mg BID, Day 14, 72 h after first daily dose): −32.9%
Median Percentage Change in 2,3-DPG Levels (single dose 200 mg, 0 h after dose): 0.0%
Median Percentage Change in 2,3-DPG Levels (single dose 200 mg, 6 h after dose): −18%
Median Percentage Change in 2,3-DPG Levels (single dose 200 mg, 8 h after dose): −17%
Median Percentage Change in 2,3-DPG Levels (single dose 200 mg, 12 h after dose): −25%
Median Percentage Change in 2,3-DPG Levels (single dose 200 mg, 16 h after dose): −33%
Median Percentage Change in 2,3-DPG Levels (single dose 200 mg, 24 h after dose): −31%
Median Percentage Change in 2,3-DPG Levels (single dose 200 mg, 36 h after dose): −33%
Median Percentage Change in 2,3-DPG Levels (single dose 200 mg, 48 h after dose): −29%
Median Percentage Change in 2,3-DPG Levels (single dose 200 mg, 72 h after dose): −18%
Median Percentage Change in 2,3-DPG Levels (single dose 400 mg, 0 h after dose): 0.0%
Median Percentage Change in 2,3-DPG Levels (single dose 400 mg, 6 h after dose): −23%
Median Percentage Change in 2,3-DPG Levels (single dose 400 mg, 8 h after dose): −29%
Median Percentage Change in 2,3-DPG Levels (single dose 400 mg, 12 h after dose): −40%
Median Percentage Change in 2,3-DPG Levels (single dose 400 mg, 16 h after dose): −35%
Median Percentage Change in 2,3-DPG Levels (single dose 400 mg, 24 h after dose): −39%
Median Percentage Change in 2,3-DPG Levels (single dose 400 mg, 36 h after dose): −38%
Median Percentage Change in 2,3-DPG Levels (single dose 400 mg, 48 h after dose): −31%
Median Percentage Change in 2,3-DPG Levels (single dose 400 mg, 72 h after dose): −30%
Median Percentage Change in 2,3-DPG Levels (single dose 700 mg, 0 h after dose): 0.0%
Median Percentage Change in 2,3-DPG Levels (single dose 700 mg, 6 h after dose): −29%
Median Percentage Change in 2,3-DPG Levels (single dose 700 mg, 8 h after dose): −28%
Median Percentage Change in 2,3-DPG Levels (single dose 700 mg, 12 h after dose): −41%
Median Percentage Change in 2,3-DPG Levels (single dose 700 mg, 16 h after dose): −46%
Median Percentage Change in 2,3-DPG Levels (single dose 700 mg, 24 h after dose): −49%
Median Percentage Change in 2,3-DPG Levels (single dose 700 mg, 36 h after dose): −46%
Median Percentage Change in 2,3-DPG Levels (single dose 700 mg, 48 h after dose): −48%
Median Percentage Change in 2,3-DPG Levels (single dose 700 mg, 72 h after dose): −33%
Median Percentage Change in 2,3-DPG Levels (single dose 1000 mg, 0 h after dose): 0.0%
Median Percentage Change in 2,3-DPG Levels (single dose 1000 mg, 6 h after dose): −20%
Median Percentage Change in 2,3-DPG Levels (single dose 1000 mg, 8 h after dose): −31%
Median Percentage Change in 2,3-DPG Levels (single dose 1000 mg, 12 h after dose): −44%
Median Percentage Change in 2,3-DPG Levels (single dose 1000 mg, 16 h after dose): −50%
Median Percentage Change in 2,3-DPG Levels (single dose 1000 mg, 24 h after dose): −48%
Median Percentage Change in 2,3-DPG Levels (single dose 1000 mg, 36 h after dose): −47%
Median Percentage Change in 2,3-DPG Levels (single dose 1000 mg, 48 h after dose): −47%
Median Percentage Change in 2,3-DPG Levels (single dose 1000 mg, 72 h after dose): −21%
mean maximum reduction in the concentration of 2,3-DPG (MAD study): at least 50%
mean maximum reduction in the concentration of 2,3-DPG, range (MAD study): 46.1-63.6%
Mean Maximum Percent Change from Baseline, 2,3-DPG [1]: −56.3%
Mean Maximum Percent Change from Baseline, ATP [1]: 68.5%
mean maximum reduction in the concentration of 2,3-DPG (SAD study): at least 40%
mean maximum reduction in the concentration of 2,3-DPG, range (SAD study): 35.4-56.1%
Mean Maximum Percent Change from Baseline, 2,3-DPG [2]: −46.8%
Mean Maximum Percent Change from Baseline, ATP [2]: 24.4%
